# Assay results published in the supplement of paper PMC10307832.
# Columns and labels:
# Test in all cases: relative viability (nuclei count vs DMSO), 5 days (fraction); higher = more cells survive
# NCI-H2170 = tested on: NCI-H2170
# Procedure, shortened: (§1)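 Medians of duplicate plates are given as relative viability. That measure is the nuclei count in treated wells divided by the count in vehicle wells. Counts were taken on 4× images of lung cancer cell lines in 1536-well plates, 5 days after pin-tool dosing the day after seeding with one drug alone or a fixed anchor-drug dose plus five library-drug doses (not always all listed) in √10 steps.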
# NCI-H441 = tested on: NCI-H441
# Procedure, shortened: as §1
# NCI-H2023 = tested on: NCI-H2023
# Procedure, shortened: as §1
# LC-2-ad = tested on: LC-2-ad
# Procedure, shortened: as §1
# SW 900 = tested on: SW 900
# Procedure, shortened: as §1
# NCI-H650 = tested on: NCI-H650
# Procedure, shortened: as §1
# NCI-H1651 = tested on: NCI-H1651
# Procedure, shortened: as §1
# NCI-H2009 = tested on: NCI-H2009
# Procedure, shortened: as §1
# EPLC-272H = tested on: EPLC-272H
# Procedure, shortened: as §1
# NCI-H727 = tested on: NCI-H727
# Procedure, shortened: as §1
# NCI-H23 = tested on: NCI-H23
# Procedure, shortened: as §1
structure (smiles),measurement,setting,value
Cc1cn(-c2cc(NC(=O)c3ccc(C)c(Nc4nccc(-c5cccnc5)n4)c3)cc(C(F)(F)F)c2)cn1 [Nilotinib] + Nc1ncn([C@H]2C[C@H](O)[C@@H](CO)O2)c(=O)n1 [Decitabine] (partner 2 µM),relative viability,NCI-H2170; first compound 0.001 µM,0.488
same,relative viability,NCI-H2170; first compound 0.003162 µM,0.553
same,relative viability,NCI-H2170; first compound 0.01 µM,0.539
same,relative viability,NCI-H2170; first compound 0.03162 µM,0.56
same,relative viability,NCI-H2170; first compound 0.1 µM,0.649
same,relative viability,NCI-H441; first compound 0.001 µM,0.295
same,relative viability,NCI-H441; first compound 0.003162 µM,0.304
same,relative viability,NCI-H441; first compound 0.01 µM,0.284
same,relative viability,NCI-H441; first compound 0.03162 µM,0.367
same,relative viability,NCI-H441; first compound 0.1 µM,0.365
same,relative viability,NCI-H2023; first compound 0.001 µM,0.245
same,relative viability,NCI-H2023; first compound 0.003162 µM,0.296
same,relative viability,NCI-H2023; first compound 0.01 µM,0.334
same,relative viability,NCI-H2023; first compound 0.03162 µM,0.271
same,relative viability,NCI-H2023; first compound 0.1 µM,0.298
same,relative viability,LC-2-ad; first compound 0.001 µM,0.8
same,relative viability,LC-2-ad; first compound 0.003162 µM,0.982
same,relative viability,LC-2-ad; first compound 0.01 µM,0.796
same,relative viability,LC-2-ad; first compound 0.03162 µM,0.859
same,relative viability,LC-2-ad; first compound 0.1 µM,0.803
same,relative viability,SW 900; first compound 0.003162 µM,0.579
same,relative viability,SW 900; first compound 0.01 µM,0.724
same,relative viability,SW 900; first compound 0.03162 µM,0.743
same,relative viability,SW 900; first compound 0.1 µM,0.577
same,relative viability,NCI-H650; first compound 0.001 µM,0.295
same,relative viability,NCI-H650; first compound 0.003162 µM,0.379
same,relative viability,NCI-H650; first compound 0.01 µM,0.387
same,relative viability,NCI-H650; first compound 0.03162 µM,0.315
same,relative viability,NCI-H650; first compound 0.1 µM,0.306
same,relative viability,NCI-H1651; first compound 0.001 µM,0.572
same,relative viability,NCI-H1651; first compound 0.003162 µM,0.734
same,relative viability,NCI-H1651; first compound 0.01 µM,0.689
same,relative viability,NCI-H1651; first compound 0.03162 µM,0.535
same,relative viability,NCI-H1651; first compound 0.1 µM,0.288
same,relative viability,NCI-H2009; first compound 0.001 µM,0.372
same,relative viability,NCI-H2009; first compound 0.003162 µM,0.393
same,relative viability,NCI-H2009; first compound 0.01 µM,0.412
same,relative viability,NCI-H2009; first compound 0.03162 µM,0.406
same,relative viability,NCI-H2009; first compound 0.1 µM,0.421
same,relative viability,EPLC-272H; first compound 0.001 µM,0.294
same,relative viability,EPLC-272H; first compound 0.003162 µM,0.368
same,relative viability,EPLC-272H; first compound 0.01 µM,0.436
same,relative viability,EPLC-272H; first compound 0.03162 µM,0.341
same,relative viability,EPLC-272H; first compound 0.1 µM,0.338
same,relative viability,NCI-H727; first compound 0.001 µM,0.67
same,relative viability,NCI-H727; first compound 0.003162 µM,0.818
same,relative viability,NCI-H727; first compound 0.01 µM,0.825
same,relative viability,NCI-H727; first compound 0.03162 µM,0.715
same,relative viability,NCI-H727; first compound 0.1 µM,0.606
same,relative viability,NCI-H23; first compound 0.001 µM,0.355
same,relative viability,NCI-H23; first compound 0.003162 µM,0.352
same,relative viability,NCI-H23; first compound 0.01 µM,0.344
same,relative viability,NCI-H23; first compound 0.03162 µM,0.351
